Ends that are not written are not given here.
Columns and labels:
[1] = tested on: HeLa cells; format: cell-based; conditions: 24 h, alamarBlue
Procedure: Peptide cytotoxicity. In vitro cytotoxicity was measured using the 3D EpiDerm skin tissues and HeLa Cells using a fluorescent reporter of cell viability, alamarBlue (ThermoFisher Scientific). 3D EpiDerm skin tissues (MatTek EPI-200-AFAB) were transferred to a 12 well plate containing 600 μL of AFAB-assay medium supplemented with 10% v/v alamarBlue. […] HeLa cells were seeded in a 96-well plate (2×10^4 cells/per well) and incubated overnight at 37° C. and 5% CO2 in a humidified incubator to prepare wells at ˜50% confluency of adherent cells. After the incubation, spent DMEM was removed and cells were washed with PBS. alamarBlue-containing medium was prepared by mixing Phenol Red-free DMEM with alamarBlue solution at a 9:1 ratio and a 180 μl volume was added to each well. Cells were treated with peptides varying from 3.25 to 200 μg/mL and then incubated for 24 h. The fluorescence intensities of treated cultures were normalized to values measured for an untreated control group. After the 24 h incubation period, alamarBlue fluorescence was measured at 590 nm upon excitation at 560 nm using Varioskan Lux plate reader (Thermo Scientific) plate reader.

[2] = tested on: MRSA ATCC 33592; test: SYTOX Green membrane integrity assay; format: cell-based, Staphylococcus aureus; conditions: one fourth to four-fold the MIC
Procedure: Membrane disruption and depolarization are commonly reported mechanisms of AMP action. Two indirect assays that rely on fluorescent dyes were employed to assess the interaction of STIP3-29 and D-STIP3-29 with bacterial membranes. First, changes to SYTOX fluorescence was measured when MRSA ATCC 33592 was treated with increasing peptide concentrations ranging from one fourth to four-fold the MIC. […] Next, DiSC3(5), a cationic dye that binds to polarized membranes was used to report on possible depolarization related to AMP treatment. […] Thus, without wishing to be bound by theory, a more conservative explanation of the results is that the cationic peptides increase membrane permeability to SYTOX and that the like-charge of the AMPs to the reporter of polarization may confound the interpretation of the indirect assay. For example, the AMPs may simply displace the self-quenching DiSC3(5) molecules from the membrane surface without causing depolarization.

[3] = tested on: Saccharomyces cerevisiae AR 399; test: MIC, YPD broth, CDC and FDA AR Candida isolate panel; format: cell-based; conditions: Table 9 top part: titrations from 1.56 to 100 μg/mL
Method in brief: (§1)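 Static overnight growth at 37° C of yeast (optical density […]) challenged with doubling peptide dilutions; sterile water served as the no-peptide control.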

[4] = tested on: Candida duobushaemulonii AR 394; test: as above; format: cell-based; conditions: Table 9 top part: titrations from 1.56 to 100 μg/mL
Method in brief: as §1

[5] = tested on: Candida krusei AR 397; test: as above; format: cell-based; conditions: Table 9 top part: titrations from 1.56 to 100 μg/mL
Method in brief: as §1

[6] = tested on: Candida duobushaemulonii AR 391; test: as above; format: cell-based; conditions: Table 9 top part: titrations from 1.56 to 100 μg/mL
Method in brief: as §1

[7] = tested on: Candida lusitaniae AR 398; test: as above; format: cell-based; conditions: Table 9 top part: titrations from 1.56 to 100 μg/mL
Method in brief: as §1

[8] = tested on: Candida duobushaemulonii AR 392; test: as above; format: cell-based; conditions: Table 9 top part: titrations from 1.56 to 100 μg/mL
Method in brief: as §1

[9] = tested on: Candida haemulonii AR 393; test: as above; format: cell-based; conditions: Table 9 top part: titrations from 1.56 to 100 μg/mL
Method in brief: as §1

[10] = tested on: Saccharomyces cerevisiae AR 400; test: as above; format: cell-based; conditions: Table 9 top part: titrations from 1.56 to 100 μg/mL
Method in brief: as §1

[11] = tested on: Kodamae ohmeri AR 396; test: as above; format: cell-based; conditions: Table 9 top part: titrations from 1.56 to 100 μg/mL
Method in brief: as §1

[12] = tested on: Klebsiella pneumoniae; test: SYTOX Green membrane integrity assay; format: cell-based; conditions: 25 μg/mL; resistant strain
[13] = tested on: S. aureus ATCC BAA-1683 (MRSA SCCmec type IV); test: MIC, broth dilution; format: cell-based, Staphylococcus aureus; conditions: Table 5; STIP3 variants, highest concentration 100 μg/mL
Method in brief: (§2)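 Peptides of 95% purity tested as 2-fold dilution series against bacteria diluted to OD 6×10^−4 in cation-adjusted Mueller Hinton broth. Standing cultures incubated overnight at 37° C; MIC is the lowest concentration with no visible growth.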

[14] = tested on: S. aureus ATCC 29213; test: MIC, broth dilution; format: cell-based, Staphylococcus aureus; conditions: Table 5; STIP3 variants, highest concentration 100 μg/mL
Method in brief: as §2

[15] = tested on: S. aureus ATCC 33592 (MRSA SCCmec type III); test: MIC, broth dilution; format: cell-based, Staphylococcus aureus; conditions: Table 5; STIP3 variants, highest concentration 100 μg/mL
Method in brief: as §2

[16] = tested on: S. aureus ATCC BAA-2094 (MRSA SCCmec type V); test: MIC, broth dilution; format: cell-based, Staphylococcus aureus; conditions: Table 5; STIP3 variants, highest concentration 100 μg/mL
Method in brief: as §2

[17] = tested on: S. aureus bovid isolate (RDM-1); test: MIC, broth dilution; format: cell-based, Staphylococcus aureus; conditions: clinical isolate
Method in brief: as §2

[18] = tested on: S. aureus ATCC BAA-42 (MRSA SCCmec type VI); test: MIC, broth dilution; format: cell-based, Staphylococcus aureus; conditions: Table 5; STIP3 variants, highest concentration 100 μg/mL
Method in brief: as §2

[19] = tested on: S. aureus ATCC BAA-2313 (MRSA SCCmec type XI); test: MIC, broth dilution; format: cell-based, Staphylococcus aureus; conditions: Table 5; STIP3 variants, highest concentration 100 μg/mL
Method in brief: as §2

[20] = tested on: S. aureus ATCC BAA-44 (MRSA SCCmec type I); test: MIC, broth dilution; format: cell-based, Staphylococcus aureus; conditions: Table 5; STIP3 variants, highest concentration 100 μg/mL
Method in brief: as §2

[21] = tested on: S. aureus ATCC BAA-41 (MRSA SCCmec type II); test: MIC, broth dilution; format: cell-based, Staphylococcus aureus; conditions: Table 5; STIP3 variants, highest concentration 100 μg/mL
Method in brief: as §2

In the case of “TVGGLVKWILKTVKKFA-NH2 [STIP3-29, TVGGLVKWILKTVKKFA-NH2]”, the “IC50, HeLa cell survival” value [1] is reported as 56 ± 1 µg/mL, the SYTOX fluorescence change [2] is reported as “rapid and concentration dependent increase in SYTOX fluorescence” and the “MIC (μg/mL) Saccharomyces cerevisiae AR 399” value [3] is reported as 50 µg/mL. The “MIC (μg/mL) Candida duobushaemulonii AR 394” value [4] was 100 µg/mL, the “MIC (μg/mL) Candida krusei AR 397” value [5] was 50 µg/mL and the “MIC (μg/mL) Candida duobushaemulonii AR 391” value [6] was 25 µg/mL. For the same substance, the “MIC (μg/mL) Candida lusitaniae AR 398” value [7] was 25 µg/mL, the “MIC (μg/mL) Candida duobushaemulonii AR 392” value [8] was 50 µg/mL and the “MIC (μg/mL) Candida haemulonii AR 393” value [9] was 200 µg/mL. For the same substance, the “MIC (μg/mL) Saccharomyces cerevisiae AR 400” value [10] was 25 µg/mL, the “MIC (μg/mL) Kodamae ohmeri AR 396” value [11] was 50 µg/mL and the SYTOX entry [12] was “SYTOX was slow to enter”. For the same substance, the “MIC S. aureus ATCC BAA 1683 (IV)” value [13] was 6.25 µg/mL, the “MIC S. aureus ATCC 29213” value [14] was 12.5 µg/mL and the “MIC S. aureus ATCC 33592 (III)” value [15] was 6.25 µg/mL. For the same substance, the “MIC S. aureus ATCC BAA 2094 (V)” value [16] was 6.25 µg/mL, the “MIC” value [17] was 6.25 µg/mL and the “MIC S. aureus ATCC BAA 42 (VI)” value [18] was 6.25 µg/mL. For the same substance, the “MIC S. aureus ATCC BAA 2313 (XI)” value [19] was 6.25 µg/mL, the “MIC S. aureus ATCC BAA 44 (I)” value [20] was 6.25 µg/mL and the “MIC S. aureus ATCC BAA 41 (II)” value [21] was 6.25 µg/mL.

Reference: US12370235B2, “Synthetic, non-natural antimicrobial peptides inspired by Staphylococcus auricularis delta toxin” (University of Saskatchewan, priority 2021, dated 2025)
